Test results as given in patent US20250154611A1, “SYSTEMS AND METHODS TO DETECT STEM CELL STRESS AND USES THEREOF” (Wayne State University, priority 2014, published 2025).
Where two headings read alike, the source gives them in different places. Where a SMILES comes first, the peptide text is derived from it. The star is where a group is joined. Cbz = O=C(OCc1ccccc1)*

What was measured:
TSCs = assay type: cell-based, mouse; conditions: 7 days
Procedure: (FIG. 10A) TSCs were incubated for 7 days±FGF4 at 20%, 2%, or 0.5% O2 with the mitochondrial activator DCA. TSCs were cultured for 7 days at 20% O2,±FGF4, and with mitochondrial inhibitors antimycin A or cyanide (FIG. 10B). The cells were then lysed and assayed by qPCR for the relative levels of 5 terminal differentiation markers PL1, PL2, Plf, CtsQ, and synTa. The experiment was repeated 3 times and bars show the average±s.e.m., (a) indicates no significant difference and (b) indicates a significant difference (p<0.05) between TSCs with FGF4 removed without or with mitochondrial agonist or antagonist. Where changes in markers are significant (b), the increase or decrease due to mitochondrial agonist or antagonist is shown above the histogram bar.
RNA isolation and quantitative reverse transcription-PCR (qRT-PCR). […] Briefly, DNase-treated total RNA was isolated following cDNA preparation using QuantiTect Reverse Transcription Kit iScript (Qiagen). Assays were performed using Fast SYBR Green on a System 7500 instrument (Applied Biosystems), and a one-step program for 40 cycles. Each experiment was carried out in triplicate, and all three genes for TSC multipotency were normalized against 18S rRNA.
To test the necessity and sufficiency of mitochondrial function for TSC differentiation, 2 mitochondrial inhibitors and an agonist were used. The mitochondrial activator dichloroacetate (DCA) was tested at 0.5%-20% O2 (FIG. 10A).
Cyanide and antimycin A inhibit COX (part of mitochondrial complex IV) and complex III, respectively, and were used to inhibit the ETC and thus the generation of Δψm for 7 days of culture at optimal differentiation conditions (FIG. 10B).

[1] = test system: Oct4, Nanog, and Rex1 protein in mESCs; assay: Proteasome inhibitor effects on Oct4, Nanog, and Rex1 during sorbitol stimulation of mESCs; assay type: cell-based, mouse; conditions: 4 hr; for stress-induced loss of Oct4, Nanog, and Rex1: 200 mM sorbitol
Procedure: FIG. 17. MG132 proteasome inhibitor effects on Oct4, Nanog, and Rex1 during sorbitol stimulation of mESCs. mESCs were treated for 4 hr with 0 or 200 mM sorbitol±10 μM MG132 and then lysed.
FIGS. 18A-18D. Lactacystin effects on Oct4, Nanog, Rex1 during sorbitol stimulation of mESCs. mESCs were treated for 4 hr±200 mM sorbitol±25, 50 μM lactacystin, then photographed before lysing. […] ANOVA+Student-Newman-Keuls post hoc tests, Oct4 p=0.000; Nanog p=0.035; Rex1 p=0.11. FIG. 18D) mESCs were stressed with or without lactacystin and micrographs were taken at 100×. Scale bar=50 μm.
Hyperosmotic-stress-induced loss of potency TFs due to proteasomal degradation. To determine the mechanism of TF protein loss during stress, mESCs were treated with one of two proteasome inhibitors, MG132 (FIG. 17) and lactacystin (FIGS. 18A-18D). […] Oct4 loss was reversed by 75%, Nanog by 93%, and Rex1 by 310% in 4 hr of proteasome inhibition by MG132.

[2] = test system: Oct4, Nanog, and Rex1 expression in mESC; assay: TF expression levels during hyperosmotic stress +/- enzyme inhibition in mESC monolayer culture (western blot)
Procedure: Histograms show relative expression of each protein when normalized to amido black expression. Error flags represent standard error of the mean (n≥3). “*” denotes significant difference from unstressed mESCs. “a” indicates significant difference from stress-only time point. ANOVA and Student-Newman-Keuls post hoc tests (P<0.05).
(FIG. 20A) mESCs were incubated±200 mM sorbitol for 0-24 hr and ±p38 inhibitor SB202190 (10 μM). mESCs were lysed, and proteins were fractionated using SDS-PAGE, blotted, and probed for Oct4 or Nanog. (FIG. 20B) Phase micrographs of mESCs following 24 hr of culture in the presence/absence of stress and p38MAPK inhibitor, SB202190. Scale bars=50 μm. (FIG. 20C) mESCs were incubated±200 mM sorbitol for 0-24 hr±either U0126 or LY294002 (25 μM). mESCs were lysed and proteins were fractionated using SDS-PAGE, blotted, and probed for Oct4 or Nanog. Histograms show relative expression of each protein when normalized to amido black expression. Error flags represent standard error of the mean (n≥3). “*” denotes significant difference from unstressed mESCs. “a” indicates significant difference from stress-only time point. ANOVA and Student-Newman-Keuls post hoc tests (P<0.05).
(FIG. 21A) mESCs were incubated±200 mM sorbitol for 0-24 hr±(A) p38MAPK inhibitor SB202190 (10 μM) or PI3K inhibitor LY294002 (25 μM); or JNK inhibitor L-JNKi-1 (2 μM). mESCs were lysed, and proteins were fractionated using SDS-PAGE, blotted, and probed for Rex1. Histograms show relative expression of each protein when normalized to amido black expression. Error flags represent standard error of the mean (n≥3). “*” denotes significant difference from unstressed mESCs. “a” indicates significant difference from stress-only time point. ANOVA and Student-Newman-Keuls post hoc tests (P<0.05). (FIG. 21B) To test the reversibility of the Rex1 loss during sorbitol stress, mESCs were incubated−200 mM sorbitol for 0-4 hr and then sorbitol was removed from some dishes for the remaining 20 hr (lane 5). Histogram is representative of two independent experiments.
Cell culture and stimulation. mESC-D3 cells (ATCC, Manassas, VA) were cultured in the absence of feeder cells in Dulbecco's modified Eagle's medium (Gibco, Grand Island, NY) supplemented with 15% mESC-screened fetal bovine serum (HyClone, Logan, UT), 2 mM L-glutamine, 1 mM sodium pyruvate, 1 mM nonessential amino acids, 0.1 mM 2-mercaptoethanol (Sigma), and 1,000 U/mL murine leukemia inhibitory factor (LIF; Millipore, Temecula, CA) on 0.1% gelatin-coated dishes at 37° C. in humidified air with 5% CO2. […] Osmolality was determined by freezing point depression using Advanced Instruments Wide Range Osmometer 3W2 (Advanced Instruments, Norwood, MA).
Enzyme inhibition. Enzyme inhibitors were chosen according to the specificity reported in the kinase inhibitor literature. […] Inhibitor concentrations were determined following dose response experiments for each inhibitor based on the range of concentrations determined from the mESC and kinase inhibitor literature.

ERK1/2 = assay: phospho-ERK1/2 western blot in mESCs under 200 mM sorbitol
Procedure: Cells were lysed and proteins were fractionated using SDS-PAGE, blotted, and probed for phospho-p38 (Thr180/Tyr182), phospho-JNK (Thr183/Tyr185), phospho-ERK1/2 (Thr202/Tyr204), or phospho-AKT (Ser473). Blots are representative of triplicate experiments.
Western blot analysis. Sodium dodecyl sulfate-polyacrylamide gel electrophoresis and western immunoblot analysis of mESC lysates were performed as previously described. […] Cells were harvested with cold lysis buffer (Cell Signaling) and protein was quantified by BCA assay (Pierce, Rockford, IL). Ten to twenty micrograms of aliquots were fractionated on 10% polyacrylamide precast gels (Bio-Rad, Hercules, CA), transferred to nitrocellulose membranes (Amersham Biosciences, Aylesbury, UK), probed overnight with primary antibodies, and developed as previously described. […] Protein bands were visualized using the ECL Advance Western Blotting Detection Kit (GE Healthcare, Waukesha, WI), blot was scanned to obtain an electronic image, and intensity of protein bands was quantified using Image J analysis software (rsbweb.nih.gov) and normalized to amido black staining. […] Data are expressed as the change in expression relative to no treatment at time zero.

[3] = test system: Oct4, Nanog, and Rex1 expression in mESC; assay: Inhibitor only effects on Oct4, Nanog, and Rex1 expression (western blot); assay type: cell-based, mouse
p38MAPK = p38MAPK (Mus musculus, UniProt P47811); assay: phospho-p38 western blot in mESCs under 200 mM sorbitol; assay type: cell-based
Procedure: (§1) FIG. 14. […] Blots are representative of triplicate experiments. Phospho-proteins and their loading controls are grouped between black lines.
(§2) FIG. 15. […] Blots are representative of triplicate experiments.
(§3) Hyperosmotic activation of signaling enzymes. […] Zhong, 2010; Xie, 2011. […] To determine the kinetics of activation of these five kinases in the described system, mESCs were treated with 200 mM sorbitol for 1 hr. Expression levels of the activated (i.e., phosphorylated) enzymes were assayed by western blot analysis (FIG. 14), including phospho-p38MAPK, phospho-JNK, phospho-MEK1/2, and phospho-AKT (the downstream effector of PI3K signaling).
(§4) Efficacy of enzyme inhibitors.

[4] = test system: mitochondrial membrane potential (ΔΨm)
Procedure: Mitochondrial staining by MitoTracker dye. TSC were cultured at different O2 levels at least 24 hr stained with DAPI (D21490, Invitrogen) alone or with either MitoTracker Red FM (Invitrogen), TMRM (T668), or JC-1 (T3168, Invitrogen) alone or with the uncoupler FCCP (Sigma), and analyzed under a DM-IRE2 fluorescence microscope (Leica, Germany) using Simple PCI image acquisition software (Hamamatsu, Sewickley, PA).
In more detail, TSC were cultured on coverslips in 12-well plates at different O2 levels either with or without FGF4, for 48 hr. Before experiments were conducted at low O2 tension, TSC were adapted in a hypoxia chamber (Billups-Rothenberg, CA) at the given O2 level described above for at least 24 hr. Nuclear dye 2.5 μg/ml DAPI (D21490, Invitrogen) was applied as a counterstain 1 hr before TSC were incubated alone with either 50 nM MitoTracker Red FM (M22425m, Invitrogen) for 30 min, 20 nM TMRM (T668) for 30 min, or 3.25 nM JC-1 (T3168, Invitrogen) for 45 min, or in combination with the uncoupler FCCP (1 nM, Sigma, C2920). After staining, the TSC were washed with PBS 2 times and immediately analyzed under a DM-IRE2 fluorescence microscope (Leica, Germany) using Simple PCI image acquisition software (Hamamatsu, Sewickley, PA).
The roles of FGF4 and O2 on Δψm associated with ATP production was determined. […]

AKT = molecular target: T1, AKT (Mus musculus, UniProt P31750); assay: phospho-AKT western blot in mESCs under 200 mM sorbitol; assay type: cell-based; conditions: mESCs, 4 hr, 200 mM sorbitol
T1 construct: endogenous in cells; host or cells: mESC-D3 (ATCC)
Procedure: as §1, §2, §3, §4

[5] = test system: Trophoblast stem cells (TSCs); assay: qPCR of lineage and multipotency markers in TSCs with or without SAPK inhibitors at 20, 2 or 0.5% O2; assay type: cell-based, mouse; conditions: TSCs + FGF4, 0.5-20% O2
Procedure: FIGS. 1A-1C. SAPK mediates decreased Gcm1 and Tpbpa and increased Hand1 at all O2 levels. There are greater effects as O2 deviates from the stemness optimum of 2% O2. Trophoblast stem cells (TSCs) were passaged and cultured at 20, 2, or 0.5% O2 overnight. FGF4 was replenished the next day at time zero, and SAPK inhibitor SP600125 (10 μm or 50 μM) was co-incubated with TSCs for 2 days at the indicated O2 levels±SP600125. Markers were quantitated using qPCR. (FIG. 1B) is a graph derived from data in (FIG. 1A), where the highest inhibited group was subtracted from the uninhibited group at each O2 level (the subtracted difference is shown as a color inset in the histogram bars of highest expression of each marker). […]
FIG. 2. […] RNA was isolated and quantitated using qPCR.
Cell lines and culture conditions. […] Quantitative removal of gas phase O2 requires 30 min in anaerobic bags, i.e., there was only a minimal period when 20% O2 was ambient to media that was pre-equilibrated under 0, 0.5, or 2% O2. […]
RNA isolation and quantitative reverse transcription-PCR (qRT-PCR). […] Briefly, DNase-treated total RNA was isolated following cDNA preparation using QuantiTect Reverse Transcription Kit […] (Qiagen). […]

[6] = 4 hr, 200 mM sorbitol + PD98059
[7] = 20% O2, FGF4 removed, sublethal concentration

T1 sequence (P31750 whole entry): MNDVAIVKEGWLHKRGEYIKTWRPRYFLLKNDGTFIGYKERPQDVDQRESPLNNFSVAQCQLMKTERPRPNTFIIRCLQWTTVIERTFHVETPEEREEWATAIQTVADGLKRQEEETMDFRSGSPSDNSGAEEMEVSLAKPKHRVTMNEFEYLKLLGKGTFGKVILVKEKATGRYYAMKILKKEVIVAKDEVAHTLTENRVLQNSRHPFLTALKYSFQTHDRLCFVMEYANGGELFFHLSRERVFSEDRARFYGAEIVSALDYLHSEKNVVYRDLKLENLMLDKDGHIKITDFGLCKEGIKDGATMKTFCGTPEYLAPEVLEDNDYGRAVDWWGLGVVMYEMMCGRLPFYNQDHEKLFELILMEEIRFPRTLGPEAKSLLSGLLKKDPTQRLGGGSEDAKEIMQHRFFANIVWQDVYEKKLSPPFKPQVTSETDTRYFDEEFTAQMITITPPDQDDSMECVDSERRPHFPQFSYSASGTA
Sequence of p38MAPK (P47811 whole entry): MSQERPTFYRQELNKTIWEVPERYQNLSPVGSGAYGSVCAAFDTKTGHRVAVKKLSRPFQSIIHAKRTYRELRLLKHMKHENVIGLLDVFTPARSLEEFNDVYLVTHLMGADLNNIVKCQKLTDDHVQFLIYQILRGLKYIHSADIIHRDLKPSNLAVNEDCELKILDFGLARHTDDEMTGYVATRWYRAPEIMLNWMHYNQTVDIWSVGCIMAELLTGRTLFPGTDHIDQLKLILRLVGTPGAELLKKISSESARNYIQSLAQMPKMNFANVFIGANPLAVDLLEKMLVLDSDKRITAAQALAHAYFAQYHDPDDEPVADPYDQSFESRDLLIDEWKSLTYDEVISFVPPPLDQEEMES

O=C(O)C(Cl)Cl [DCA, dichloroacetate]
PL2 mRNA increase (TSCs; 2% O2): 2 fold
synTa mRNA increase (TSCs; 2% O2): 2 fold

CC(=O)N[C@@H](CSC(=O)[C@]1([C@@H](O)C(C)C)NC(=O)[C@H](C)[C@@H]1O)C(=O)O [lactacystin]
stress-induced loss of Oct4, Nanog, and Rex1 [1]: prevented

COc1cccc(-c2cc(=O)c3ccccc3o2)c1N [PD98059]
Nanog expression relative to unstressed level [2, 6]: 2.5 times
expression of Oct4 and Rex1 [2, 6]: remained at the unstressed baseline
Oct4 recovery ([2]; 24 hr, 200 mM sorbitol + inhibitor): did not prevent
inhibition of ERK1/2 activation (average) (ERK1/2; mESCs, 4 hr, 200 mM sorbitol): 30%
Nanog protein expression, inhibitor only ([3]; 24 hr inhibitor only, vs 24 hr no inhibitor, AKTi 10, LY294002 10, L-JNKi-1 2, SB202190 10, U0126 40, PD98059 20 μM): *1.54 ± 0.10%

Oc1ccc(-c2nc(-c3ccncc3)c(-c3ccc(F)cc3)[nH]2)cc1 [SB202190]
Nanog expression ([2]; 24 hr ongoing stress, 200 mM sorbitol + SB202190): 10%
Oct4 expression ([2]; 24 hr, 200 mM sorbitol + SB202190, did not recover from 4-h nadir): 50 % of unstressed levels
inhibition of p38MAPK activation (average) (p38MAPK): 60%

N#CC(C#N)=NNc1ccc(OC(F)(F)F)cc1 [FCCP, Carbonyl cyanide 4-(trifluoromethoxy)phenylhydrazone]
JC1 stain fluorescence [4]: no fluorescence
effect on Δψm [4]: completely depolarizes

N#CC(=C(/N)Sc1ccccc1N)/C(C#N)=C(\N)Sc1ccccc1N [U0126]
Oct4 or Nanog loss during stress [2]: did not prevent
Oct4 recovery [2]: prevented
Rex1 expression [2]: remained at unstressed levels
inhibition of ERK1/2 activation (average) (ERK1/2): 87%
Nanog protein expression, inhibitor only [3]: 0.94 ± 0.15%
Oct4 protein expression, inhibitor only [3]: 1.16 ± 0.31%
Rex1 protein expression, inhibitor only [3]: 0.72 ± 0.06%

O=c1cc(N2CCOCC2)oc2c(-c3ccccc3)cccc12 [LY294002]
inhibition of AKT activation (average) (AKT): 88%

CC(C)C[C@@H](C=O)NC(=O)[C@H](CC(C)C)NC(=O)[C@H](CC(C)C)NC(=O)OCc1ccccc1 [MG132] (Cbz-Leu-Leu-Leu-aldehyde)
reversal of stress-induced Nanog loss ([1]; 10 μM MG132, 200 mM sorbitol): 93%
reversal of stress-induced Oct4 loss ([1]; 10 μM MG132, 200 mM sorbitol): 75%
reversal of stress-induced Rex1 loss ([1]; 10 μM MG132, 200 mM sorbitol): 310%
stress-induced loss of Oct4, Nanog, and Rex1 [1]: prevented

antimycin A
Ctsq mRNA inhibited (TSCs; [7]): 81%
PL2 mRNA inhibited (TSCs; [7]): 98%
synTa mRNA inhibited (TSCs; [7]): 42%

Oc1c2ccccc2c2c3c(cccc13)N=N2 [SP600125]
multipotency factors Cdx2, Id2, Errβ mRNA [5]: no effect
